Measurements from patent US6855715B1, “Serine protease inhibitors” (Eli Lilly and Company, priority 1999, dated 2005).

Tested on: not given
Experiment: not given
Details: not given

Row | Compound | melting point
1 | COc1ccc(C(=O)N[C@@H](C(=O)N2CCN(CC3CCN(C(C)C)CC3)CC2)c2ccccc2)cc1.Cl | 172 to 180 °C (dec.)
2 | COc1ccc(C(=O)N[C@@H](C(=O)N2CCN(CCC3CCCC3)CC2)c2ccccc2)cc1.Cl.O (hydrate or solvate) | 190 to 192 °C
3 | COc1ccc(C(=O)N[C@@H](CNC(=O)c2ccc(C)cc2)c2ccccc2)cc1 [Example 254, (R)-N-[2-(4-Methoxybenzoylamino)-2-phenylethyl]-4-methylbenzamide] | 230 to 238 °C
4 | CCc1ccc(C(=O)NC[C@H](NC(=O)c2ccc(OC)cc2)c2ccccc2)cc1 [Example 255, (R)-N-[2-(4-Methoxybenzoylamino)-2-phenylethyl]-4-ethylbenzamide] | 222 to 229 °C
5 | COc1ccc(C(=O)N[C@@H](CNC(=O)c2ccc(C(C)C)cc2)c2ccccc2)cc1 [Example 256, (R)-N-[2-(4-Methoxybenzoylamino)-2-phenylethyl]-4-isopropylbenzamide] | 239 to 244 °C
6 | COc1ccc(C(=O)N[C@@H](CNC(=O)c2ccc(C(C)(C)C)cc2)c2ccccc2)cc1 [Example 257, (R)-N-[2-(4-Methoxybenzoylamino)-2-phenylethyl]-4-tert-butylbenzamide] | 171 to 175 °C
7 | COc1ccc(C(=O)N[C@@H](CNC(=O)C2CCN(C3CCCC3)CC2)c2ccccc2)cc1 [Example 259, (R)-N-[2-(4-Methoxybenzoylamino)-2-phenylethyl]-1-cyclopentylpiperidine-4-carboxamide] | 253 to 257 °C
8 | COc1ccc(C(=O)N[C@@H](CNC(=O)C2CCN(C3CCCCC3)CC2)c2ccccc2)cc1 [Example 260, (R)-N-[2-(4-Methoxybenzoylamino)-2-phenylethyl]-1-cyclohexylpiperidine-4-carboxamide] | 239 to 243 °C
9 | CCN1CCC(C(=O)NC[C@H](NC(=O)c2ccc(OC)cc2)c2ccccc2)CC1 [Example 261, (R)-N-[2-(4-Methoxybenzoylamino)-2-phenylethyl]-1-ethylpiperidine-4-carboxamide] | 245 to 251 °C
10 | COc1ccc(C(=O)N[C@@H](CNC(=O)C2CCN(C3CCN(C)CC3)CC2)c2ccccc2)cc1 [Example 262, (R)-N-[2-(4-Methoxybenzoylamino)-2-phenylethyl]-1-(1-methylpiperidin-4-yl)piperidine-4-carboxamide] | 252 to 259 °C

Tested on: plasma
Experiment: Partial Thromboplastin Time (Prothrombin) Test Protocol
Type: biochemical
Details: concentration of the solution added; final concentration in the assay mixture is one third of this value; Example 66 and comparison compounds: average of 3 tests
Description: The ability of a test compound to elongate Partial Thromboplastin Time (Prothrombin Time) may be evaluated in the following test protocols.
Partial Thromboplastin Time (Prothrombin) Test Protocol Venous blood was collected into 3.2% (0.109 m) trisodium citrate vacutainer tubes at 1 volume of anticoagulant to nine volumes of blood. The blood cells were separated by centrifugation at 700 g for ten minutes to yield plasma, which was frozen at […] until required.
To perform the test, 100 μl of plasma was pipetted into in a glass test tube, 1 μl of test compound in DMSO was added, and allowed to warm to 37° over two minutes. 100 μl of warm (37°) Manchester (tissue thromboplasin) reagent (Helena Biosciences, UK) was added, allowed to equilibrate for two minutes. 100 μl of warm (37°) 25 mM calcium chloride solution was added to initiate clotting. The test tube was tilted three times through a 90° angle every five seconds to mix the reagents and the time to clot formation recorded. Data from a series of observations and test compound concentrations are analysed by a SAS statistical analysis program and a CT2 (Concentration required to double clotting time) for each compound is generated.

Row | Compound | Conc. necessary to double the prothrombin time [µM]
11 | 1-(3,4 Diaminobenzoyl-D-phenylglycinyl)-4-(4-fluoro-2-methylsulphonylphenyl)piperazine [Example 32] | 11
12 | CS(=O)(=O)c1cc(F)ccc1N1CCN(C(=O)[C@H](NC(=O)c2ccc3ccnc(N)c3c2)c2ccccc2)CC1.O=C(O)C(F)(F)F.O=C(O)C(F)(F)F [1-aminoisoquinolin-7-oyl-D-phenylglycine-4-(4-fluoro-2-methanesulfonylphenyl)-piperazinamide ditrifluoroactetate salt, reference compound] | 45
13 | Nc1cc2ccccc2cc1C(=O)N[C@@H](C(=O)N1CCC(C2CCNCC2)CC1)c1ccccc1 [Example 8, 1-(3-Amino-2-naphthoyl-D-phenylglycinyl)-4,4′-bispiperidine] | 26
14 | CS(=O)(=O)c1cc(F)ccc1N1CCN(C(=O)[C@H](NC(=O)c2cc(N)ccc2N)c2ccccc2)CC1 [Example 27, 1-(2,5-Diaminobenzoyl-D-phenylglycinyl)-4-(4-fluoro-2-methylsulphonylphenyl)piperazine] | 6.7
15 | CS(=O)(=O)c1cc(F)ccc1N1CCN(C(=O)[C@H](NC(=O)c2cccc(N)c2)c2ccccc2)CC1 [Example 30, 1-(3-Aminobenzoyl-D-phenylglycinyl)-4-(4-fluoro-2-methylsulphonylphenyl)piperazine] | 7.8
16 | Cc1ccc(C(=O)N[C@@H](C(=O)N2CCN(c3ccc(F)cc3S(C)(=O)=O)CC2)c2ccccc2)cc1N [Example 38, 1-(3-Amino-4-methylbenzoyl-D-phenylglycinyl)-4-(4-fluoro-2-methylsulphonylphenyl)piperazine] | 9.0
17 | COc1ccc(C(=O)N[C@@H](C(=O)N2CCN(c3ccc(F)cc3S(C)(=O)=O)CC2)c2ccccc2)cc1 [Example 39, 1-(4-Methoxybenzoyl-D-phenylglycinyl)-4-(4-fluoro-2-methylsulphonylphenyl)piperazine] | 12
18 | COc1ccc(C(=O)N[C@@H](C(=O)N2CCN(c3ccc(F)cc3S(C)(=O)=O)CC2)c2ccccc2)cc1N [Example 40, 1-(3-Amino-4-methoxybenzoyl-D-phenylglycinyl)-4-(4-fluoro-2-methylsulphonylphenyl)piperazine] | 12
19 | CN1CCC(C2CCN(C(=O)[C@H](NC(=O)c3cccc(N)c3)c3ccccc3)CC2)CC1 [Example 62, 1-(3-Aminobenzoyl-D-phonylglycinyl)-1′-methyl-4,4′-bispiperidine] | 8.6
20 | CN1CCC(C2CCN(C(=O)[C@H](NC(=O)c3ccc(Cl)c(N)c3)c3ccccc3)CC2)CC1 [Example 63, 1-(3-Amino-4-chlorobenzoyl-D-phenylglycinyl)-1′-methyl-4,4′-bispiperidine] | 2.1
21 | Cc1ccc(C(=O)N[C@@H](C(=O)N2CCC(C3CCN(C)CC3)CC2)c2ccccc2)cc1N [Example 64, 1-(3-Amino-4-methylbenzoyl-D-phenylglycinyl)-1′-methyl-4,4′-bispiperidine] | 4.4
22 | CN1CCC(C2CCN(C(=O)[C@H](NC(=O)c3cc4ccccc4cc3N)c3ccccc3)CC2)CC1 [Example 65, 1-(3-Aminonaphth-2-oyl-D-phenylglycinyl)-1′-methyl-4,4′-bispiperidine] | 6.1
23 | CN1CCC(C2CCN(C(=O)[C@H](NC(=O)c3ccc4cc[nH]c4c3)c3ccccc3)CC2)CC1 [Example 66, 1-(Indol-6-carbonyl-D-phenylglycinyl)-1′-methyl-4,4′-bispiperidine] | 2.1
24 | CN1CCC(C2CCN(C(=O)[C@H](NC(=O)c3ccc(Br)c(N)c3)c3ccccc3)CC2)CC1 [Example 68, 1-(3-Amino-4-bromobenzoyl-D-phenylglycinyl)-1′-methyl-4,4′-bispiperidine] | 3.6
25 | COc1ccc(C(=O)N[C@@H](C(=O)N2CCC(C3CCN(C)CC3)CC2)c2ccccc2)cc1N [Example 69, 1-(3-Amino-4-methoxybenzoyl-D-phenylglycinyl)-1′-methyl-4,4′-bispiperidine] | 5.8
26 | CNc1ccc(C(=O)N[C@@H](C(=O)N2CCC(C3CCN(C)CC3)CC2)c2ccccc2)cc1 [Example 70, 1-(4-(Methylamino)benzoyl-D-phenylglycinyl)-1′-methyl-4,4′-bispiperidine] | 4.0
